Results from patent US20250215010A1, “DIAZABICYCLOOCTANE DERIVATIVES USEFUL AS MATRIX METALLOPROTEINASE INHIBITORS” (VASA THERAPEUTICS SPOLKA Z OGRANICZONA ODPOWIEDZIALNOSCIA, priority 2022, published 2025).
Where two headings read alike, the source gives them in different places.

How the values were obtained:
Type in all cases: biochemical
[1] = target: T1, ADAM10 (Homo sapiens, UniProt O14672); test: SensoLyte 520 ADAM10 fluorometric activity assay (AnaSpec AS-72226)
T1 construct: purchased AnaSpec, Inc. AS-72226
T1 sequence (O14672 214-748): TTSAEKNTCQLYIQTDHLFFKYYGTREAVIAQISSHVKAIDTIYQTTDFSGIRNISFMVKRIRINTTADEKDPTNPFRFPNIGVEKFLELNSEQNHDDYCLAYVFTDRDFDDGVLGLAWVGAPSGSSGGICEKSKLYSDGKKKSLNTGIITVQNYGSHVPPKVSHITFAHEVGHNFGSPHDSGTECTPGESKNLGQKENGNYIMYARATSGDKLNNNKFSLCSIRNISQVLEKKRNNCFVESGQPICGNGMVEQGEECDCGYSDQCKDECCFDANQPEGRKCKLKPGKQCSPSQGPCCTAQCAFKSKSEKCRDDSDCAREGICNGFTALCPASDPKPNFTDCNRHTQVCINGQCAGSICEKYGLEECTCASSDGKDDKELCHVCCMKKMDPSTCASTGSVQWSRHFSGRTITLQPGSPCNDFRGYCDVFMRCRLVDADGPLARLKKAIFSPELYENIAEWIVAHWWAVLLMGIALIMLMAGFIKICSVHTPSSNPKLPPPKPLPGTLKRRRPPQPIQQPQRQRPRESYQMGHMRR
Method: The inhibitory activities of the compounds of the invention were assessed in 96-well microplate format using MMP1, MMP2, MMP9 and MMP13 colorimetric assay kits and TACE fluorometric assay kit from Enzo Life Sciences, Inc. The inhibitory effect of the compounds of the invention on ADAM10 activity were evaluated in 96-well microplate format using fluorometric assay from AnaSpec, Inc.
SensoLyte® 520 ADAM10 Activity Assay Kit (catalog #AS-72226) is a complete assay system designed to screen ADAM10 inhibitors using FRET-based peptide substrate containing the 5-FAM/QXL™ 520 fluorophore/quencher pair. The fluorescence of 5-FAM is quenched by QXL™ 520 and recovered upon cleavage of the peptide by active ADAM10.
The inhibitory activity of the compounds of the invention against ADAM10 was tested according to the manufacturer's assay protocol and the fluorescence was monitored at excitation/emission wavelengths=495 nm/520 nm using Tecan Infinite® 200 Pro F Nano^+ microplate reader.
The normalized values were analyzed using GraphPadPrism 9 for Windows (GraphPad Software, San Diego, CA, USA) software by plotting inhibition curves and determining the IC50 values (in nM).

[2] = target: T2, MMP13 (Homo sapiens, UniProt P45452); test: MMP-13 colorimetric inhibition assay (Enzo kit BML-AK412); settings: thiopeptide substrate, absorbance 415 nm; read-out: MMP 13 IC50 class
T2 construct: purchased Enzo Life Sciences, Inc. BML-AK412
Procedure, shortened: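 Thiopeptide chromogenic substrate (Ac-PLG-[2-mercapto-4-methylpentanoyl]-LG-OC2H5); MMP-13 hydrolysis of the thioester yields a thiol that reacts with DTNB, read at 415 nm. IC50 values (nM) derived from inhibition curves of normalized data.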

[3] = target: ADAM17 (TACE) (Homo sapiens, UniProt P78536); test: TACE fluorometric inhibition assay (Enzo kit BML-AK310); settings: quenched fluorogenic peptide, ex/em 320/420 nm; read-out: TACE IC50 class
Procedure, shortened: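 Kit-based TACE assay run per manufacturer's protocol, using quenched fluorogenic peptide Mca-PLAQAV-Dpa-RSSSR-NH2 whose cleavage raises Mca fluorescence. Signal read at ex/em 320/420 nm; IC50 (nM) derived from inhibition curves of normalized values.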

[4] = target: MMP9 (Homo sapiens, UniProt P14780); test: MMP-9 colorimetric inhibition assay (Enzo kit BML-AK410); settings: thiopeptide substrate, absorbance 415 nm; read-out: MMP 9 IC50 class
Procedure, shortened: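 Colorimetric thioester-substrate assay: hydrolysis of Ac-PLG-[2-mercapto-4-methylpentanoyl]-LG-OC2H5 frees a thiol that reacts with DTNB, read at 415 nm. Run per kit protocol. IC50 (nM) taken from inhibition curves of normalized values.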

[5] = target: T3, MMP2 (Homo sapiens, UniProt P08253); test: MMP-2 colorimetric inhibition assay (Enzo kit BML-AK408); settings: thiopeptide substrate, absorbance 415 nm; read-out: MMP 2 IC50 class
T3 sequence (P08253 110-660): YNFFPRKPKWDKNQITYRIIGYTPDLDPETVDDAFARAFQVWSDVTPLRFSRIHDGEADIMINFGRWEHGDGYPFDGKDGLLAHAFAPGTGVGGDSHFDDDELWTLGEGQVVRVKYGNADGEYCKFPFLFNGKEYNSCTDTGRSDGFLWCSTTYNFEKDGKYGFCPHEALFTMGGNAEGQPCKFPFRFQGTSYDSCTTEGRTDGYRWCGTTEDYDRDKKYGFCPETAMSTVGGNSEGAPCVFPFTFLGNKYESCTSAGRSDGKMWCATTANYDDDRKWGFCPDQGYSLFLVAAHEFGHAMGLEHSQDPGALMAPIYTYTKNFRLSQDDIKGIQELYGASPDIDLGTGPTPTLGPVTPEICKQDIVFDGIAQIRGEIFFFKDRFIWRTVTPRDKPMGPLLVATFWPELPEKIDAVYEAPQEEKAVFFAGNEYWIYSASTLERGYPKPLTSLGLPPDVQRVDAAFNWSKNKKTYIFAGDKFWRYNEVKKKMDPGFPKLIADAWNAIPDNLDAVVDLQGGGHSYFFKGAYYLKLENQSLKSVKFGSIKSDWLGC
Procedure, shortened: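 Cleavage of the thiopeptide Ac-PLG-[2-mercapto-4-methylpentanoyl]-LG-OC2H5 releases a sulfhydryl that reacts with DTNB, read at 415 nm per the kit protocol. IC50 values (nM) come from inhibition curves of normalized data.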

[6] = target: T4, MMP1 (Homo sapiens, UniProt P03956); test: MMP-1 colorimetric inhibition assay (Enzo kit BML-AK404); settings: thiopeptide substrate, absorbance 415 nm; read-out: MMP 1 IC50 class
T4 sequence (P03956 100-269 limits assumed): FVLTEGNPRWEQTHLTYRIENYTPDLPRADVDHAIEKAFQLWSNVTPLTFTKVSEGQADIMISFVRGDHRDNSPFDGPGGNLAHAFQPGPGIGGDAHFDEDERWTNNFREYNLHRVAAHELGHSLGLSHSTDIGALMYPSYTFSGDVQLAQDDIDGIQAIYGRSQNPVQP
Procedure, shortened: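 Colorimetric kit run per manufacturer protocol. MMP-1 cleaves a thiopeptide substrate (Ac-PLG-[2-mercapto-4-methylpentanoyl]-LG-OC2H5); released thiol reacts with DTNB, monitored at 415 nm. IC50 (nM) from inhibition curves of normalized values.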

[7] = FRET peptide substrate, ex/em 495/520 nm, read-out: ADAM 10 IC50 class

MMP9, sequence (P14780 94-707): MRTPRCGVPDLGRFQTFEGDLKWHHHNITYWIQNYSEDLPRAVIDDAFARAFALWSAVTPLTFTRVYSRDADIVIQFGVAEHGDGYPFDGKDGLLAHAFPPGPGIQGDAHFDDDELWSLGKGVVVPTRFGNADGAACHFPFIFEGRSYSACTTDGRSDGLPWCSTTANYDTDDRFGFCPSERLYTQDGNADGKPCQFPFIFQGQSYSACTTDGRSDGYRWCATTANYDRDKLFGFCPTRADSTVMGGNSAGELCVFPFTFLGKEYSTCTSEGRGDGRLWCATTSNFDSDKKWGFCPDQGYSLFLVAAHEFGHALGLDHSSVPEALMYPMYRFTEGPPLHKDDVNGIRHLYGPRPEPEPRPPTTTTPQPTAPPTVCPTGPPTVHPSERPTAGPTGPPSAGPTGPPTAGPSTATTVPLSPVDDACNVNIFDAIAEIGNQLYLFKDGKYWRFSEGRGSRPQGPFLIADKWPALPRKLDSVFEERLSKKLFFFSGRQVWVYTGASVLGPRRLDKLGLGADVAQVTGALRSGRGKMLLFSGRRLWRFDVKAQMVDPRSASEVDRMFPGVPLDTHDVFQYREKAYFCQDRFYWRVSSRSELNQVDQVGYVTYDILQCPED
ADAM17 (TACE), sequence (P78536 215-477 limits assumed): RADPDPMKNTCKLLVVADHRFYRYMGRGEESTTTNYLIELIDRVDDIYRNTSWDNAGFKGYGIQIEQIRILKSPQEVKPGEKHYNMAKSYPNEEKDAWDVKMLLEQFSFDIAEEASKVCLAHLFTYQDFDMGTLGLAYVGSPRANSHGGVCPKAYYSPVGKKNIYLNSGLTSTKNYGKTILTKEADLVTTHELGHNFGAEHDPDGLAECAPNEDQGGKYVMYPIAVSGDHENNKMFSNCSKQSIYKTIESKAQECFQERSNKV

Row | Compound | IC50 [1, 7] | IC50 [2] | IC50 [3] | IC50 [4] | IC50 [5] | IC50 [6] | IC50 [1]
1 | COCCOC(=O)N1[C@@H]2CC[C@H]1[C@H](C(=O)NO)N(S(=O)(=O)c1ccc(Oc3ccc(OC(C)(C)C)cc3)nc1)C2 [Example 31, 2-methoxyethyl (1S,2R,5R)-3-((6-(4-(tert-butoxy)-phenoxy)pyridin-3-yl)sulfonyl)-2-(hydroxycarbamoyl)-3,8-diazabicyclo-[3.2.1]octane-8-carboxylate] | > 10000 nM | < 50 nM | > 10000 nM | < 50 nM | < 50 nM | > 10000 nM | –
2 | COCCOC(=O)N1[C@@H]2CC[C@H]1[C@H](C(=O)NO)N(S(=O)(=O)c1ccc(Oc3ccc(C)cc3)nc1)C2 [Example 32, 2-methoxyethyl (1S,2R,5R)-2-(hydroxycarbamoyl)-3-((6-(p-tolyloxy)-pyridin-3-yl)-sulfonyl)-3,8-diazabicyclo[3.2.1]-octane-8-carboxylate] | > 10000 nM | < 50 nM | 1000 to 10000 nM | < 50 nM | < 50 nM | 50 to 1000 nM | –
3 | CCc1ccc(Oc2ccc(S(=O)(=O)N3C[C@H]4CC[C@@H]([C@@H]3C(=O)NO)N4C(=O)OCCOC)cn2)cc1 [Example 33, 2-methoxyethyl (1S,2R,5R)-3-((6-(4-ethylphenoxy)pyridin-3-yl)sulfonyl)-2-(hydroxycarbamoyl)-3,8-diazabicyclo-[3.2.1]octane-8-carboxylate] | > 10000 nM | < 50 nM | 1000 to 10000 nM | < 50 nM | < 50 nM | 1000 to 10000 nM | –
4 | COCCOC(=O)N1[C@@H]2CC[C@H]1[C@H](C(=O)NO)N(S(=O)(=O)c1ccc(Oc3ccc(OC)c(F)c3)nc1)C2 [Example 34, 2-methoxyethyl (1S,2R,5R)-3-((6-(3-fluoro-4-methoxy-phenoxy)pyridin-3-yl)sulfonyl)-2-(hydroxycarbamoyl)-3,8-diaza-bicyclo[3.2.1]octane-8-carboxylate] | 1000 to 10000 nM | < 50 nM | 1000 to 10000 nM | < 50 nM | < 50 nM | 1000 to 10000 nM | –
5 | COCCOC(=O)N1[C@@H]2CC[C@H]1[C@H](C(=O)NO)N(S(=O)(=O)c1ccc(Oc3cnn(C)c3)nc1)C2 [Example 36, 2-methoxyethyl (1S,2R,5R)-2-(hydroxycarbamoyl)-3-((6-((1-methyl-1H-pyrazol-4-yl)oxy)-pyridin-3-yl)-sulfonyl)-3,8-diazabicyclo[3.2.1]-octane-8-carboxylate] | 1000 to 10000 nM | < 50 nM | 50 to 1000 nM | < 50 nM | < 50 nM | < 50 nM | –
6 | COCCOC(=O)N1[C@@H]2CC[C@H]1[C@H](C(=O)NO)N(S(=O)(=O)c1ccc(Oc3cnn(-c4ccccc4)c3)nc1)C2 [Example 39, 2-methoxyethyl (1S,2R,5R)-2-(hydroxycarbamoyl)-3-((6-((1-phenyl-1H-pyrazol-4-yl)oxy)-pyridin-3-yl)sulfonyl)-3,8-diazabicyclo-[3.2.1]octane-8-carboxylate] | > 10000 nM | < 50 nM | 50 to 1000 nM | < 50 nM | < 50 nM | 50 to 1000 nM | –
7 | COCCOC(=O)N1[C@@H]2CC[C@H]1[C@H](C(=O)NO)N(S(=O)(=O)c1ccc(Oc3cnn(C)c3)c(F)c1)C2 [Example 41, 2-methoxyethyl (1S,2R,5R)-3-((3-fluoro-4-((1-methyl-1H-pyrazol-4-yl)oxy)phenyl)sulfonyl)-2-(hydroxycarbamoyl)-3,8-diazabicyclo[3.2.1]octane-8-carboxylate] | 50 to 1000 nM | < 50 nM | 50 to 1000 nM | < 50 nM | < 50 nM | < 50 nM | –
8 | COCCOC(=O)N1[C@@H]2CC[C@H]1[C@H](C(=O)NO)N(S(=O)(=O)N1CCC(Oc3ccc(Cl)cc3)CC1)C2 [Example 44, (1S,2R,5R)-2-methoxyethyl 3-((4-(4-chlorophenoxy)piperidin-1-yl)sulfonyl)-2-(hydroxycarbamoyl)-3,8-diazabicyclo[3.2.1]octane-8-carboxylate] | – | < 50 nM | < 50 nM | < 50 nM | < 50 nM | 50 to 1000 nM | 50 to 1000 nM
9 | COCCOC(=O)N1[C@@H]2CC[C@H]1[C@H](C(=O)NO)N(S(=O)(=O)N1CCC(Oc3ccc(F)cc3)CC1)C2 [Example 45, 2-methoxyethyl (1S,2R,5R)-3-((4-(4-fluoro-phenoxy)-piperidin-1-yl)-sulfonyl)-2-(hydroxy-carbamoyl)-3,8-diazabicyclo-[3.2.1]octane-8-carboxylate] | 1000 to 10000 nM | < 50 nM | 50 to 1000 nM | < 50 nM | < 50 nM | 50 to 1000 nM | –
10 | COCCOC(=O)N1[C@@H]2CC[C@H]1[C@H](C(=O)NO)N(S(=O)(=O)N1CCC(Oc3ccc(C(F)(F)F)cc3)CC1)C2 [Example 48, 2-methoxyethyl (1S,2R,5R)-2-(hydroxy-carbamoyl)-3-((4-(4-(trifluoromethyl)phenoxy)-piperidin-1-yl)-sulfonyl)-3,8-diazabicyclo-[3.2.1]octane-8-carboxylate] | – | < 50 nM | < 50 nM | < 50 nM | < 50 nM | 1000 to 10000 nM | 50 to 1000 nM
11 | CC(=O)N1[C@@H]2CC[C@H]1[C@H](C(=O)NO)N(S(=O)(=O)c1ccc(Oc3ccc(F)cc3)nc1)C2 [Example 53, (1S,2R,5R)-8-acetyl-3-((6-(4-fluorophenoxy)pyridin-3-yl)sulfonyl)-N-hydroxy-3,8-diazabicyclo[3.2.1]octane-2-carboxamide] | > 10000 nM | < 50 nM | 1000 to 10000 nM | < 50 nM | < 50 nM | 50 to 1000 nM | –
